Source: patent US8013153B2, “Substituted pyrimidine kinase inhibitors” (Janssen Pharmaceutica, N.V., priority 2006, dated 2011)
pIC50: −log10 of the molar value. Like-named read-outs stand apart in the source and are kept apart here.

How the values were obtained:
A375 malignant melanoma = experiment: Inhibition of in vitro cell proliferation (A375); assay type: cell-based, human; conditions: Homo sapiens, A-375, 14C-thymidine incorporation;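 note: cells plated for 24 h, given compound for 24 h, then labelled with 14C-thymidine for another 24 h, with DMSO-only wells as control and counts read by scintillation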
[1] = system: HeLa cervical adenocarcinoma; experiment: Inhibition of in vitro cell proliferation (HeLa); assay type: cell-based, human; conditions: Homo sapiens, 14C-thymidine incorporation;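 note: cells exposed to compound for 24 h, then labelled 24 h with methyl 14C-thymidine, with uptake into DNA counted by scintillation against DMSO-only control wells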
murine Aurora-A = target: T1, murine Aurora-A (Mus musculus, UniProt P97477); experiment: Aurora-A Screening Assay; assay type: biochemical
T1 construct: replaced with the full length protein encoding the murine Aurora-A; made in house; host or cells: sf9 insect cells
T1 sequence (P97477 1-395): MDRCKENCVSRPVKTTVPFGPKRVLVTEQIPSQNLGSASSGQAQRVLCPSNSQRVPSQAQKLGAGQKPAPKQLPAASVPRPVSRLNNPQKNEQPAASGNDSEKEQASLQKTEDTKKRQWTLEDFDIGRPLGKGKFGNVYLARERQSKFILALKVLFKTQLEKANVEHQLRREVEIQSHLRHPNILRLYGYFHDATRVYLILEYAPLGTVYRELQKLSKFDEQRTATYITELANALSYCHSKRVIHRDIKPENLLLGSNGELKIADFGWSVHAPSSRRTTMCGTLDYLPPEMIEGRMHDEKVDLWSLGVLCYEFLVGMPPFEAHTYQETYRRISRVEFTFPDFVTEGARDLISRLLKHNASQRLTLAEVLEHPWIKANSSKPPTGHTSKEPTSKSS
Method: (§1) A kinase reaction mixture was prepared containing 50 mM Tris-HCl pH=8, 10 mM MgCl2, 0.1 mM Na3PO4, 1 mM DTT, 10 μM ATP, 0.025 μM biotinylated histone-H1 peptide substrate and 0.2 μCuries per well ^33P-γ-ATP (2000-3000 Ci/mmol). 70 μL of the kinase reaction mixture was dispensed into the well of a streptavidin coated FlashPlate™ (Cat. # SMP103, NEN, Boston, Mass.). Then 1 μL of test compound stock in 100% DMSO was added to the wells resulting in a final concentration of 1% DMSO in the reaction with a 100 μL final reaction volume.
(§2) The CDK1:Cyclin-B protein was diluted in 50 mM Tris-HCl pH=8.0, 0.1% BSA at a concentration of 1 ng per μL and 30 μL (30 ng enzyme per test well) was added to each well to initiate the reaction. The reaction was incubated for one hour at 30° C. At the end of the 1 hour incubation, the reaction was terminated by aspirating the mixture from the plate and washing the wells twice with PBS containing 100 mM EDTA. The histone-H1 biotinylated peptide substrate became immobilized on the Flashplate™ and the incorporation of ^33P-γ-ATP was measured by reading the plate on a scintillation counter. Inhibition of the enzymatic activity of CDK1 was measured by observing a reduced amount of ^33P-γ-ATP incorporated into the immobilized peptide.
The Aurora-A kinase assay was carried out using the CDK kinase assay procedure except that the enzyme was replaced with the full length protein encoding the murine Aurora-A (Accession #GB BC014711) expressed and purified from sf9 insect cells.

HCT-116 colon carcinoma = experiment: Inhibition of in vitro cell proliferation (HCT116); assay type: cell-based, human; conditions: Homo sapiens, HCT-116, 14C-thymidine incorporation;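 note: cells exposed to compound for 24 h, then 14C-thymidine added for a further 24 h and its uptake into DNA counted by scintillation, DMSO-only wells as control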
HER2 cytoplasmic domain = target: T2, HER2 cytoplasmic domain (Homo sapiens, UniProt P04626); experiment: HER2 Kinase Screening Assay; assay type: biochemical; conditions: > means no observed 50% inhibition at the indicated test concentration; ~ means approximately 50% inhibition at that concentration
T2 construct: polyhistidine (N)
T2 sequence (P04626 676-1255 limits assumed): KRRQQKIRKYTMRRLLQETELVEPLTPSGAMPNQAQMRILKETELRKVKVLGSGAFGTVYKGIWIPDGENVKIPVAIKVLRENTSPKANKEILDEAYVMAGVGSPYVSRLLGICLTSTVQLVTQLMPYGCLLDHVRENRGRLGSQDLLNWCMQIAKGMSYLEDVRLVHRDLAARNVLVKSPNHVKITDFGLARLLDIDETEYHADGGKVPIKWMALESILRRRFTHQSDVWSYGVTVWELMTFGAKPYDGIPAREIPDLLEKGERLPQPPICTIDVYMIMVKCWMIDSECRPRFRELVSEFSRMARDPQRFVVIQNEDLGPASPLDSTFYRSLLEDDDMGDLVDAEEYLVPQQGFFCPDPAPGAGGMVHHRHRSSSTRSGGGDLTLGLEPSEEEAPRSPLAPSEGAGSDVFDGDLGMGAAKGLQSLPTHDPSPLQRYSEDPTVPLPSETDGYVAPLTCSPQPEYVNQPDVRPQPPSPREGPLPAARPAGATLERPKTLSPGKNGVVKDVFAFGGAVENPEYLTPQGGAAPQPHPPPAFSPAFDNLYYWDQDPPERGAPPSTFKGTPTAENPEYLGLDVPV
Method: as §1, §2
The HER2 kinase assay was carried out using the CDK kinase assay procedure except that the enzyme was replaced with a HER2 construct containing a polyhistidine tag at the N-terminus followed by 24 additional amino acids and the HER2 cytoplasmic domain beginning at amino acid 676 (Accession #M11730) to the end.

CDK1:Cyclin-B = target: T3, CDK1:Cyclin-B (Homo sapiens, UniProt P06493); experiment: CDK1 Screening Assay; assay type: biochemical
T3 construct: purchased New England Biolabs, Beverly, Mass; 6020; host or cells: insect cells
T3 sequence (P06493 whole entry): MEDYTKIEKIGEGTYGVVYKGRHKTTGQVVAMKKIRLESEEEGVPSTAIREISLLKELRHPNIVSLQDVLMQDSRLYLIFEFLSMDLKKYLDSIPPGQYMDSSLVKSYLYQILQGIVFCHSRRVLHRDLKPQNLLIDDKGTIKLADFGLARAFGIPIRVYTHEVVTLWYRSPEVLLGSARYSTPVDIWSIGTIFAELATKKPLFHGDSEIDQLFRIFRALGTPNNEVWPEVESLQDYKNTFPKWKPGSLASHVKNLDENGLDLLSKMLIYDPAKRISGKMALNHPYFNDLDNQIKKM
T3 sequence (P14635 whole entry partner): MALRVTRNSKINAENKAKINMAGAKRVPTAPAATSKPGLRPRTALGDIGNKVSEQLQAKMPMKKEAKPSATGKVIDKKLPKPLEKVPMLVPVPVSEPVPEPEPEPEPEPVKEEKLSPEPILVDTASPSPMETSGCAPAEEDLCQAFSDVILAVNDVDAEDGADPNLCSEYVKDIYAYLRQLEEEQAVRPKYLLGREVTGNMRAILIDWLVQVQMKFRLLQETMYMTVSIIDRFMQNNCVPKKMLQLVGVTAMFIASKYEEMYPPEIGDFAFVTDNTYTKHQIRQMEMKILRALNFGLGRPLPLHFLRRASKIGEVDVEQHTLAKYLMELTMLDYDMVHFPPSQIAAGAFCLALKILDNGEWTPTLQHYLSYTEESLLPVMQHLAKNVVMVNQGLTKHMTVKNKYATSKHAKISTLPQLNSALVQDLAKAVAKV
Method: as §1, §2
The CDK1 used was isolated from insect cells expressing both the human CDK1 catalytic subunit and its positive regulatory subunit cyclin B (New England Biolabs, Beverly, Mass., Cat. #6020).

[2] = target: T4, rat VEGF-R2 kinase domain (Rattus norvegicus, UniProt O08775); experiment: VEGF-R2 Screening Assay; assay type: biochemical
T4 construct: amino acids 786-1343 of the rat VEGF-R2 kinase domain; polyhistidine (N)
T4 sequence (O08775 786-1343): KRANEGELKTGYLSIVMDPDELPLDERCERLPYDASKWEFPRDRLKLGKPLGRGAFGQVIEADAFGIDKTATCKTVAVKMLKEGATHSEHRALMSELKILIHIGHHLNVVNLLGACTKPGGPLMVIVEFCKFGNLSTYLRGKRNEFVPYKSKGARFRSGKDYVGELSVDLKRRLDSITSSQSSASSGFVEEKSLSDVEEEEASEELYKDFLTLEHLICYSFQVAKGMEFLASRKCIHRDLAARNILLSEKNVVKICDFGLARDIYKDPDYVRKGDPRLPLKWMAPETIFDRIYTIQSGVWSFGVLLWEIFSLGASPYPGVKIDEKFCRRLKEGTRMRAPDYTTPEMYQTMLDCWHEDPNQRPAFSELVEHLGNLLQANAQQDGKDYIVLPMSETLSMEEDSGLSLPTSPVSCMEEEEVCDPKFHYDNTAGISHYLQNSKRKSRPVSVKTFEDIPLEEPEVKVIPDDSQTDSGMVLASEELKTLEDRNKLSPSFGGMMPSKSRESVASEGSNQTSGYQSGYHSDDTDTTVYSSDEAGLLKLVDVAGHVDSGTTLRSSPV

[3] = > means no observed 50% inhibition at the indicated test concentration, ~ means approximately 50% inhibition at that concentration, read-out: IC50 VEGF-R2

| Compound | IC50 (A375 malignant melanoma) [µM] | IC50 [1] [µM] | pIC50 (murine Aurora-A) | IC50 (HCT-116 colon carcinoma) [µM] | pIC50 (HER2 cytoplasmic domain) | pIC50 (CDK1:Cyclin-B) | pIC50 [2, 3] | pIC50 ([2]; IC50 VEGF-R2) |
| --- | --- | --- | --- | --- | --- | --- | --- | --- |
| CO/N=C/c1c(N)ncnc1Oc1ccc2[nH]c(C)cc2c1 [Cpd 2, 4-amino-6-(2-methyl-1H-indol-5-yloxy)-pyrimidine-5-carbaldehyde O-methyl-oxime] | 0.356 | 0.389 | ~4.00 | 0.386 | < 6.00 | < 4.00 | – | – |
| Cc1cc2c(F)c(Oc3ncnc(N)c3C=NOCCCN(C)C)ccc2[nH]1 [Cpd 17, 4-amino-6-(4-fluoro-2-methyl-1H-indol-5-yloxy)-pyrimidine-5-carbaldehyde O-(3-dimethylamino-propyl)-oxime] | – | – | 4.47 | – | ~5.00 | < 4.00 | – | – |
| Cc1cc2c(F)c(Oc3ncnc(N)c3C=NOCCCN3CCCCC3)ccc2[nH]1 [Cpd 20, 4-amino-6-(4-fluoro-2-methyl-1H-indol-5-yloxy)-pyrimidine-5-carbaldehyde O-(3-piperidin-1-yl-propyl)-oxime] | 0.429 | 0.715 | < 4.00 | 2.78 | 5.81 | < 4.00 | 7.43 | – |
| Cc1cc2c(F)c(Oc3ncnc(N)c3C=NOCCCN3CCNCC3)ccc2[nH]1 [Cpd 21, 4-amino-6-(4-fluoro-2-methyl-1H-indol-5-yloxy)-pyrimidine-5-carbaldehyde O-(3-piperazin-1-yl-propyl)-oxime] | 11.2 | 24.5 | < 5.00 | 68.1 | 6.12 | < 4.00 | 7.44 | – |
| Cc1cc2c(F)c(Oc3ncnc(N)c3C=NOCCCCN3CCCCC3)ccc2[nH]1 [Cpd 24, 4-amino-6-(4-fluoro-2-methyl-1H-indol-5-yloxy)-pyrimidine-5-carbaldehyde O-(4-piperidin-1-yl-butyl)-oxime] | > 100 | > 100 | < 4.00 | > 100 | 6.55 | < 4.00 | 7.07 | – |
| C=CCON=Cc1c(N)ncnc1Oc1ccc2[nH]c(C)cc2c1F [Cpd 31, 4-amino-6-(4-fluoro-2-methyl-1H-indol-5-yloxy)-pyrimidine-5-carbaldehyde O-allyl-oxime] | 0.021 | 0.042 | < 4.00 | 0.04 | < 4.00 | < 4.00 | – | – |
| COCCCON=Cc1c(N)ncnc1Oc1ccc2[nH]c(C)cc2c1F [Cpd 33, 4-amino-6-(4-fluoro-2-methyl-1H-indol-5-yloxy)-pyrimidine-5-carbaldehyde O-(3-methoxy-propyl)-oxime] | 0.3 | 0.346 | < 5.00 | 0.438 | 5.40 | < 4.00 | – | – |
| CNC(=O)n1c(C)cc2c(F)c(Oc3ncnc(N)c3C=NOC)ccc21 [Cpd 43, 5-[6-amino-5-(methoxyimino-methyl)-pyrimidin-4-yloxy]-4-fluoro-2-methyl-indole-1-carboxylic acid methylamide] | – | – | < 4.00 | – | < 5.00 | < 4.00 | ~6.00 | – |
| CNC(=O)Cc1ccc(Oc2ncnc(N)c2C=NOC)cc1 [Cpd 96, 2-{4-[6-amino-5-(methoxyimino-methyl)-pyrimidin-4-yloxy]-phenyl}-N-methyl-acetamide] | – | – | < 5.00 | – | < 4.00 | < 4.00 | – | 4.71 |
| CNC(=O)c1ccc(Oc2ncnc(N)c2C=NOC)cc1 [Cpd 98, 4-[6-amino-5-(methoxyimino-methyl)-pyrimidin-4-yloxy]-N-methyl-benzamide] | – | – | < 4.00 | – | < 4.00 | < 4.00 | – | – |
| CON=Cc1c(N)ncnc1Oc1ccc(CC(=O)Nc2cccc(F)c2)cc1 [Cpd 100, 2-{4-[6-amino-5-(methoxyimino-methyl)-pyrimidin-4-yloxy]-phenyl}-N-(3-fluoro-phenyl)-acetamide] | – | – | < 4.00 | – | 5.55 | < 4.00 | – | – |
| CCNC(=O)Cc1ccc(Oc2ncnc(N)c2C=NOC)cc1 [Cpd 101, 2-{4-[6-amino-5-(methoxyimino-methyl)-pyrimidin-4-yloxy]-phenyl}-N-ethyl-acetamide] | – | – | < 5.00 | – | < 4.00 | < 4.00 | – | – |
| CCNC(=O)Oc1ccc(Oc2ncnc(N)c2C=NOC)cc1 [Cpd 102, ethyl-carbamic acid 4-[6-amino-5-(methoxyimino-methyl)-pyrimidin-4-yloxy]-phenyl ester] | – | – | < 5.00 | – | < 4.00 | < 4.00 | – | – |
| CCNC(=O)Nc1ccc(Oc2ncnc(N)c2C=NOCCN2CCOCC2)cc1Cl [Cpd 103, 1-(4-{6-amino-5-[(2-morpholin-4-yl-ethoxyimino)-methyl]-pyrimidin-4-yloxy}-2-chloro-phenyl)-3-ethyl-urea] | – | – | < 4.00 | – | < 4.00 | < 4.00 | 7.03 | – |
| CCNC(=O)Nc1ccc(Oc2ncnc(N)c2C=NOCCOC)cc1Cl [Cpd 104, 1-(4-{6-amino-5-[(2-methoxy-ethoxyimino)-methyl]-pyrimidin-4-yloxy}-2-chloro-phenyl)-3-ethyl-urea] | – | – | < 4.00 | – | < 4.00 | < 4.00 | 7.39 | – |
| CON=Cc1c(N)ncnc1Oc1ccc(OC(=O)Nc2cccc(Cl)c2)cc1 [Cpd 105, (3-chloro-phenyl)-carbamic acid 4-[6-amino-5-(methoxyimino-methyl)-pyrimidin-4-yloxy]-phenyl ester] | – | – | < 4.00 | – | < 4.00 | < 4.00 | < 4.00 | – |
| CON=Cc1c(N)ncnc1Oc1cc(OC)cc(OC)c1 [Cpd 106, 4-amino-6-(3,5-dimethoxyphenoxy)-5-pyrimidinecarboxaldehyde O-methyloxime] | – | – | < 4.00 | – | < 5.00 | < 4.00 | < 5.00 | – |
| CCOC(=O)c1c(C)[nH]c2ccc(Oc3ncnc(N)c3/C=N/OC)cc12 [Cpd 107, 5-[{6-amino-5-[(E)-(methoxyimino)methyl]-4-pyrimidinyl}oxy]-2-methyl-1H-indole-3-carboxylic acid ethyl ester] | – | – | < 4.00 | – | < 4.00 | < 4.00 | < 4.00 | – |
| CON=Cc1c(N)ncnc1Oc1ccc2c(c1)OCO2 [Cpd 108, 4-amino-6-(1,3-benzodioxol-5-yloxy)-5-pyrimidinecarboxaldehyde O-methyloxime] | – | – | < 5.00 | – | < 5.00 | < 4.00 | 5.40 | – |
| CON=Cc1c(N)ncnc1Oc1ccc(F)c(Cl)c1 [Cpd 109, 4-amino-6-(3-chloro-4-fluorophenoxy)-5-pyrimidinecarboxaldehyde O-methyloxime] | – | – | < 4.00 | – | < 6.00 | < 4.00 | < 4.00 | – |
| CON=Cc1c(N)ncnc1OCc1cccc(F)c1 [Cpd 112, 4-amino-6-[(3-fluorophenyl)methoxy]-5-pyrimidinecarboxaldehyde O-methyloxime] | – | – | – | – | < 5.00 | – | – | – |
| CO/N=C/c1c(N)ncnc1Oc1ccc2[nH]cc(CCNC(C)=O)c2c1 [Cpd 113, N-[2-{5-[{6-amino-5-[(E)-(methoxyimino)methyl]-4-pyrimidinyl}oxy]-1H-indol-3-yl}ethyl]-acetamide] | – | – | < 4.00 | – | < 4.00 | < 4.00 | < 4.00 | – |
| CON=Cc1c(N)ncnc1OCc1ccc2ccccc2c1 [Cpd 115, 4-amino-6-(2-naphthalenylmethoxy)-5-pyrimidinecarboxaldehyde O-methyloxime] | – | – | – | – | – | – | < 5.00 | – |
